Key:
Riproximin (Rpx) [1] = molecular target: T1, Riproximin (Rpx) (Ximenia americana, UniProt Q2PA54); test: 1H NMR line broadening and waterLOGSY; assay type: binding; details: 298 K; pyranose anomers observed separately in one sample
Riproximin (Rpx) [2] = molecular target: T1, Riproximin (Rpx); test: waterLOGSY NMR; assay type: binding; details: 298 K; pyranose anomers observed separately in one sample

T1 sequence (Q2PA54 53-325 limits assumed): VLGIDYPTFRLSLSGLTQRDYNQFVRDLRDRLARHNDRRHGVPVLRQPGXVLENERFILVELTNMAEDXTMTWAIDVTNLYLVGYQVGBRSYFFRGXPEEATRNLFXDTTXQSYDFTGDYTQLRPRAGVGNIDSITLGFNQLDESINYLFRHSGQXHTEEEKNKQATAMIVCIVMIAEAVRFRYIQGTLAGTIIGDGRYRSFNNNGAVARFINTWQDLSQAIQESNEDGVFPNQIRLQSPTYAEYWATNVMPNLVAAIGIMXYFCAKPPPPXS
T1 sequence (Q2PA54 334-601 limits assumed): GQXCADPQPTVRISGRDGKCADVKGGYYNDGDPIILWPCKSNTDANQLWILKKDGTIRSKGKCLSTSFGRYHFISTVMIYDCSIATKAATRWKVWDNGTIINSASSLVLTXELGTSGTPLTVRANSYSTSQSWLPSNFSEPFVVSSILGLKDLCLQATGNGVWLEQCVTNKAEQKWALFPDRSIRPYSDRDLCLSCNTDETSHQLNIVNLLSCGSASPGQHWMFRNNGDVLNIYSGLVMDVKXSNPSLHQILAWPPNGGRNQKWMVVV

Structure (SMILES) | 1H NMR line broadening and waterLOGSY (Riproximin (Rpx) [1]) | waterLOGSY NMR (Riproximin (Rpx) [2])
C[C@@H]1OC(O)[C@@H](O)[C@H](O)[C@@H]1O (mixture of isomers) [L-fucose] | The methyl doublet signals of L-fucose show clear line broadening due to binding to Rpx | 
OC[C@H]1OC(O)[C@H](O)[C@@H](O)[C@H]1O (mixture of isomers) [D-galactose] | The affinities of both D-galactose and L-fucose for Rpx were moderate as evident by clear | 
C[C@@H]1OC(O)[C@H](O)[C@H](O)[C@H]1O (mixture of isomers) [L-rhamnose] |  | water-LOGSY spectrum confirmed nevertheless the very weak binding of both, the α- and β-anomers of l-rhamnose
